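In this assay, cells in 96-well plates receive the compound at five concentrations for 48 hours. Endpoints are linearly interpolated between the surrounding concentrations. Abbreviation: GI50, concentration required for 50% inhibition of growth. The concentration for full growth arrest is given as TGI.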
Assays:
Experiment in all cases: DTP human tumour cell line panel, 48 h
[1] = test system: DMS 114 small cell lung
[2] = test system: HOP-18 NSCLC
[3] = test system: MALME-3M melanoma
[4] = test system: DLD-1 colon
[5] = test system: M19-MEL melanoma
[6] = test system: HT29 colon
[7] = test system: XF 498 CNS
[8] = test system: U251 CNS
[9] = test system: UACC-62 melanoma
[10] = test system: UO-31 renal
[11] = test system: ACHN renal
[12] = test system: COLO 205 colon
[13] = test system: SNB-78 CNS
[14] = test system: LXFL 529 NSCLC
[15] = test system: HL-60(TB) leukemia
[16] = test system: KM20L2 colon
[17] = test system: DMS 273 small cell lung

SMILES | TGI [1] | TGI [2] | TGI [3] | TGI [4] | TGI [5] | TGI [6] | TGI [7] | TGI [8] | TGI [9] | TGI [10] | TGI [11] | TGI [12] | TGI [13] | TGI [14] | TGI [15] | TGI [16] | TGI [17] | GI50 [15]
CCCCC/C=C1\CCC(CN2CCOCC2)C1=O (configuration not stated) | 38.5 µM | 27.5 µM | 18.9 µM | 19.2 µM | > 54.8 µM | 35.7 µM | 31.8 µM | 23.8 µM | 28.5 µM | 25.9 µM | 30.1 µM | 13.7 µM | 47.4 µM | 16.6 µM | 24.2 µM | 19 µM |  | 
COc1cc2c(cc1OC)[C@]1(O)C(=O)c3ccc4c(c3O[C@@H]1CO2)C[C@H](C(C)(C)O)O4 | > 100 µM |  | > 100 µM | > 100 µM | > 100 µM | > 100 µM | > 100 µM | > 100 µM | > 100 µM | > 100 µM | > 100 µM | > 100 µM | > 100 µM | > 100 µM | > 100 µM | > 100 µM | > 100 µM | 
CSc1ccc2c(cc1=O)C(NC(=O)c1cc(O)c(OC(=O)O)c(O)c1)CCc1cc(O)c(O)c(O)c1-2 (configuration not stated) | 36 µM | > 90 µM | > 90 µM | 43.9 µM | 27.4 µM | 40.2 µM |  | 32.9 µM | 30.6 µM | > 90 µM | > 90 µM | > 90 µM | 81.6 µM | 36.9 µM | 70.3 µM | 83.2 µM | 38.6 µM | 
CN1C(=O)c2cccc3c([N+](=O)[O-])ccc(c23)C1=O | 11.2 µM | 30.8 µM | 31.1 µM | 12.1 µM | 24.5 µM |  |  | 13.8 µM | 4.03 µM | 26.7 µM | 21.7 µM | 19.8 µM | 32 µM | 3.89 µM |  | 19.5 µM | 15.7 µM | 
CC1=CC(=O)c2cccc(O)c2C1=O | 7.89 µM | 3.07 µM | 2.98 µM |  | 4.05 µM | 10.4 µM | 3.2 µM | 30.2 µM | 3.68 µM | 3.28 µM | 3.17 µM | 4.36 µM | > 62.4 µM | 3.06 µM | 9.13 µM | 41.6 µM | 5.01 µM | 
C/C(=N\O)C(CN(C)C)C(c1ccccc1)c1c(O)c2ccccc2oc1=O (configuration not stated) | > 100 µM |  | > 100 µM | > 100 µM | > 100 µM | > 100 µM | > 100 µM | > 100 µM | > 100 µM | > 100 µM |  | > 100 µM | > 100 µM | > 100 µM | > 100 µM | > 100 µM | > 100 µM | 
O=C(Cc1ccccc1)NN1C(=O)C(Cl)C1c1cc(Br)cc(Br)c1O (configuration not stated) | 17.8 µM | 31.4 µM | 51.9 µM | > 100 µM | 63.2 µM | 63.4 µM | 79.3 µM | 31.4 µM | 61.6 µM | 20.6 µM | > 100 µM | 44.8 µM | 83 µM | 50 µM | 10.1 µM | > 100 µM | 65.2 µM | 
COC(=O)C(=O)C(C(=O)C(=O)Nc1ccc([N+](=O)[O-])cc1C#N)c1nc2ccc([N+](=O)[O-])cc2[nH]c1=O (configuration not stated) | > 100 µM | > 100 µM | > 100 µM | > 100 µM | > 100 µM | > 100 µM |  | > 100 µM | > 100 µM | > 100 µM | > 100 µM | > 100 µM | > 100 µM | > 100 µM | > 100 µM | > 100 µM | > 100 µM | 
c1ccc(SCCP(CCP(c2ccccc2)c2ccccc2)c2ccccc2)cc1 (configuration not stated) | 33.2 µM | 14 µM | > 59.1 µM | > 100 µM | > 100 µM | > 100 µM | 8.15 µM | > 100 µM |  | 53.9 µM | > 76 µM | 15.8 µM | > 100 µM | 23.3 µM | > 22.2 µM |  | 13.6 µM | 
CCCC/C=C1\CCC(CN2CCOCC2)C1=O (configuration not stated) | 15.8 µM | 2.05 µM | 4.95 µM | 3.13 µM | 15.2 µM | 12.1 µM | 3.15 µM | 8.35 µM | 16 µM | 11.6 µM | 8.23 µM | 9.49 µM | 32.3 µM | 2.74 µM | 5.61 µM | 11.4 µM | 17.6 µM | 0.566 µM
CCCN(CCC)C(=O)Cc1c2n(c3ccccc13)CCCc1ccccc1-2 | 24.1 µM | 30.3 µM | 26.8 µM | 26.5 µM | 29.5 µM | 26 µM | 28.8 µM | 29.4 µM | 23 µM | 27.2 µM | 25.1 µM | 29.1 µM | 27.6 µM | 26.6 µM | 37.1 µM | 27.9 µM | 23.2 µM | 
O=c1[nH]nc2c3n[nH]c(=O)n3c3ccccc3n12 | > 100 µM |  | > 100 µM | > 100 µM | > 100 µM | > 100 µM | > 100 µM | > 100 µM | > 100 µM | > 100 µM | > 100 µM | > 100 µM | > 100 µM | > 100 µM |  | > 100 µM | > 100 µM | 
CCC(=O)NCC1(c2c[nH]c3ccccc23)SCCS1 | > 100 µM | > 100 µM | > 100 µM | > 100 µM | > 100 µM | > 100 µM | > 100 µM | > 100 µM | > 100 µM |  | > 100 µM | > 100 µM | > 100 µM | > 100 µM | > 100 µM | > 100 µM | > 100 µM | 
O=C1c2ccccc2C(=O)N1C/C=N/NS(=O)(=O)c1ccc(Cl)cc1 | > 100 µM |  | > 100 µM | > 100 µM | > 100 µM | > 100 µM | > 100 µM | > 100 µM | > 100 µM | > 100 µM | > 100 µM | > 100 µM |  | > 100 µM | > 100 µM | > 100 µM | > 100 µM | 
CCOC(=O)NC(=O)c1cn(-c2ccc(CCOC(=O)CCCCCCCCC(=O)OCCc3ccc(-n4cc(C(=O)NC(=O)OCC)c(=O)[nH]c4=O)cc3)cc2)c(=O)[nH]c1=O | > 100 µM | > 100 µM | > 100 µM | > 100 µM | > 100 µM | > 100 µM | > 100 µM | > 100 µM | > 100 µM | > 100 µM | > 100 µM | > 100 µM | > 100 µM | > 100 µM | > 100 µM | > 100 µM |  | 
CCN(CC)CCNC(=O)c1ccccc1Nc1c(Cl)cccc1Cl | 24.8 µM |  |  | 24.7 µM | 30.2 µM | 19 µM | 16.5 µM | 20.7 µM | 32.1 µM | 22.2 µM | 31.3 µM | 26.7 µM | 33.1 µM | 30.5 µM | 25.5 µM | 7.27 µM | 30.6 µM | 
CN(C)CC1CCC(CN(C)C)C1=NO (configuration not stated) | > 100 µM | > 100 µM | > 100 µM | > 100 µM | > 100 µM | > 100 µM |  |  | > 100 µM | > 100 µM | > 100 µM | > 100 µM | > 100 µM | > 100 µM |  | > 100 µM | > 100 µM | 
CN1C(=O)NC2(O)c3ccccc3C(=O)C12O (configuration not stated) | > 100 µM |  | > 100 µM | > 100 µM | > 100 µM | > 100 µM | > 100 µM | > 100 µM | > 100 µM | > 100 µM |  | > 100 µM | > 100 µM | > 100 µM | > 100 µM | > 100 µM |  | 
Cc1nnc2nc(-c3ccc(Cl)cc3Cl)cc(-c3ccc(Cl)cc3)n12 |  |  | > 100 µM |  |  | 42.3 µM |  | > 100 µM | > 100 µM | > 100 µM | > 100 µM | 49.6 µM |  |  | > 100 µM |  |  | 
O=C(c1cccs1)N(C(=S)OCc1ccccn1)c1ccccc1 |  |  | 44 µM |  |  | > 100 µM |  | > 100 µM | > 100 µM | 96.7 µM | > 100 µM | > 100 µM |  |  | > 100 µM |  |  | 
COC(=O)c1ccccc1C1CN=NC12Cc1c(C)c3c(c(C)c1C2=O)CCC3 (configuration not stated) |  |  | > 100 µM |  |  | > 100 µM |  | > 100 µM | > 100 µM | > 100 µM | > 100 µM | > 100 µM |  |  | > 100 µM |  |  | 
CC(=O)C1CC2(c3ccccc3)C(=O)c3ccccc3N2O1 (configuration not stated) | > 100 µM | > 100 µM | > 100 µM | > 100 µM | > 100 µM | > 100 µM | > 100 µM | > 100 µM | > 100 µM | > 100 µM | > 100 µM | > 100 µM | > 100 µM | > 100 µM | > 100 µM | > 100 µM | > 100 µM | 
COc1ccccc1OCc1nnc(SCC(=O)O)n1-c1ccccc1 | > 100 µM |  | > 100 µM | > 100 µM |  | > 100 µM | > 100 µM | > 100 µM | > 100 µM | > 100 µM | > 100 µM | > 100 µM | > 100 µM | > 100 µM | > 100 µM | > 100 µM | > 100 µM | 
C/C(CC(=O)Nc1ccc(C)cc1)=N\NC(N)=S | > 100 µM |  | > 100 µM | > 100 µM | > 100 µM | > 100 µM | > 100 µM | > 100 µM | > 100 µM | > 100 µM | > 100 µM | > 100 µM | > 100 µM | > 100 µM | > 100 µM | > 100 µM |  | 
CCOC(=O)C1C(=O)CC(C)(O)C(C(=O)OCC)C1c1ccc(O)c(OC)c1 (configuration not stated) |  |  | > 100 µM |  |  | > 100 µM |  | > 100 µM | > 100 µM | > 100 µM | > 100 µM | > 100 µM |  |  | > 100 µM |  |  | 
C[C@@H]1O[C@@H]2OCC[C@@H]2C2=C1C(=O)c1ccccc1C2=O |  |  | 4.95 µM |  |  | > 100 µM |  | 29.5 µM | 17.4 µM | 22.8 µM | 28.6 µM | 51.3 µM |  |  | 19.1 µM |  |  | 
S=c1scc(-c2ccc(Cl)cc2)n1OC1CCCC1 |  |  | > 100 µM |  |  | > 100 µM |  | 39.7 µM | > 100 µM | > 100 µM | 90.4 µM | 26.5 µM |  |  | 71.3 µM |  |  | 
O=C1C=CC(=O)c2c(O)c(Nc3ccc(OC(F)(F)F)cc3)c(Cl)c(O)c21 |  |  | 2.47 µM |  |  | 1.28 µM |  | 2.05 µM | 2.29 µM | 5.58 µM | 2.76 µM | 2.84 µM |  |  | 3.24 µM |  |  | 
Cn1c2nc(=Nc3ccc(Cl)cc3)n3ccc4ccccc4c3c2c(=O)n1-c1ccccc1 |  |  | > 100 µM |  |  | > 100 µM |  | > 100 µM | > 100 µM | > 100 µM | > 100 µM | > 100 µM |  |  | > 100 µM |  |  | 

Source: PubChem BioAssay (NCI)
